This note sets out measurements from paper PMC10517138, “Varied effects of tobacco smoke and e-cigarette vapor suggest that nicotine does not affect endothelium-dependent relaxation and nitric oxide signaling” (Scientific Reports, 2023).

The assay concerns the target T1, purified sGC (bovine lung soluble guanylyl cyclase) (Bos taurus, UniProt P16068).
T1 construct: gene GUCY1B1; native enzyme purified from bovine lung; with Guanylate cyclase soluble subunit alpha-1
T1 sequence (P16068 1-619): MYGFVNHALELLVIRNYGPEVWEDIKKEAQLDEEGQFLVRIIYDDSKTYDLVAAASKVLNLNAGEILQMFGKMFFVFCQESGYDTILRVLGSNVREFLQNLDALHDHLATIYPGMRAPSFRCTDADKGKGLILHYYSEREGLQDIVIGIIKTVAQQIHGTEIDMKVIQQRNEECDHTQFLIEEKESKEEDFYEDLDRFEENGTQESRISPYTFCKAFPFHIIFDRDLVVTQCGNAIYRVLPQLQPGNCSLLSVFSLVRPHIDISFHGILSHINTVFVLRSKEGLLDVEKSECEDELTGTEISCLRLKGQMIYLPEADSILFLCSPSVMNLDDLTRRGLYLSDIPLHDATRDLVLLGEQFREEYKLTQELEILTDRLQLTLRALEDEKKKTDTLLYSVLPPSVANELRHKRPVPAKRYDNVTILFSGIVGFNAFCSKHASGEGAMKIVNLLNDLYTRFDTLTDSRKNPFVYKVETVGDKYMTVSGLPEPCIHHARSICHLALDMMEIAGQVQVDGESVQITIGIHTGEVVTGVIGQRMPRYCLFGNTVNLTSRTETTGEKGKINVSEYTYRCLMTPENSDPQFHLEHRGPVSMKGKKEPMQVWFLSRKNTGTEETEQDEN
T1 sequence (P19687 1-691 partner): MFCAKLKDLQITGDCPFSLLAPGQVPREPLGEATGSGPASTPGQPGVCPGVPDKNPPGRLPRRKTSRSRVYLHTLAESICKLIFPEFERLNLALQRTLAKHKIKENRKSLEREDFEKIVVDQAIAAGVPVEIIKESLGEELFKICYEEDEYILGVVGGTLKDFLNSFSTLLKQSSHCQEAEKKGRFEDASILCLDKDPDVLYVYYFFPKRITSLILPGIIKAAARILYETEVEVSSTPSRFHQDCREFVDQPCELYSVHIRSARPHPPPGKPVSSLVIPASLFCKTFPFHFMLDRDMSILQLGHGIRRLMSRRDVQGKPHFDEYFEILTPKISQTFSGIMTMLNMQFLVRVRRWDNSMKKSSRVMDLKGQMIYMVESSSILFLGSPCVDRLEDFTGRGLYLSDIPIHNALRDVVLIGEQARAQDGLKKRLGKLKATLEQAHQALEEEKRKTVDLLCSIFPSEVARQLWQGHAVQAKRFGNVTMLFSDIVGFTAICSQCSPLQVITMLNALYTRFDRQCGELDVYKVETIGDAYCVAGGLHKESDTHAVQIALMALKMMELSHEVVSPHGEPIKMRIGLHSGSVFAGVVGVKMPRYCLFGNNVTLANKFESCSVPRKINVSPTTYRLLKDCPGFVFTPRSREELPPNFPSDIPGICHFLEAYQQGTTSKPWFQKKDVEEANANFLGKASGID
As to the kind of experiment: […]cGMP formation from [alpha-32P]GTP by purified sGC. Type of assay: biochemical. The note with it: 0.5 mM GTP, 3 mM MgCl2, 1 mM cGMP, 0.5% Tween 20 (heme-depleted enzyme), TEA/HCl pH 7.4, 37 °C, no extract; NO-independent heme-site activator.

As to `O=C(O)CCCCN(CCc1ccccc1OCc1ccc(CCc2ccccc2)cc1)Cc1ccc(C(=O)O)cc1` [cinaciguat], the “cGMP formation (activation)” value is listed as “cGMP formation by Tween 20-treated sGC in the presence of the NO-independent heme-site activator cinaciguat”.
